Laboratory results from US20210246122A1, “Triazine Compounds and Uses Thereof” (Aduro Biotech, Inc., priority 2018, published 2021).

Target: T1, Human cGAS amino acids 155-522 (Homo sapiens, UniProt Q8N884)
T1 construct: hexahistidine tag (N, cleaved yes); made in house; host or cells: E. coli BL21 DE3 Rosetta 2
Assay: cGAS activity assay (DNA-activated cGAS, remaining ATP measured by Kinase-Glo Max luciferase assay)
Type: biochemical
Details: 300 nM purified cGAS, 1 μM dsDNA, 250 μM ATP, 100 μM GTP, 37° C. for 1.25 hours
Method: IC50 values were determined as follows:
Human cGAS sequence encoding amino acids 155-522 was cloned into a pET (EMD Millipore) based expression plasmid. The resulting construct contained a tandem N-terminal hexahistidine tag, maltose binding protein fusion followed by a tobacco etch virus protease cleavable linker preceding cGAS amino acids 155-522.
Construct sequence: Amino acids 155-522, Human cGAS
Protein was expressed and purified from E. coli BL21 DE3 Rosetta 2 (EMD Millipore) cells using standard techniques. Cells were grown in 2× yeast extract tryptone medium and expression was initiated via the addition of isopropyl β-D-1-thiogalactopyranoside. Expression proceeded overnight at 18° C. Cells were harvested by centrifugation and subsequently lysed via sonication. Insoluble fraction was removed by centrifugation. Maltose binding protein (MBP) fusion proteins were purified on a dextrin sepharose column (GE Healthcare) and the MBP tag was removed using tobacco etch virus protease overnight during dialysis. Protein was further purified on a heparin column (GE Healthcare) and eluted using a NaCl gradient. Column fraction were pooled and further purified on a Superdex 75 gel filtration column (GE Healthcare). Protein was quantified using 280 nm absorbance. Protein was then flash frozen in liquid nitrogen and stored at −80° C. until use.
Potential antagonists were diluted in 100% dimethyl sulfoxide and added to the reaction. Final dimethyl sulfoxide concentration was 5%. The compounds were tested from 1 μM with either 3- or 4-fold serial dilutions down to 0.000051 or 0.000004 μM respectively.
Two complementary DNA oligos (IDT DNA) were annealed by slow cooling from 95° C. The resulting double stranded DNA was used to activate cGAS.
Reactions were performed at 37° C. for 1.25 hours. Reaction buffer: 20 mM Tris HCl pH 9, 100 mM NaCl, 5 mM MgCl2, 0.1 mg/ml bovine gamma globulin, 250 μM adenosine triphosphate, 100 μM guanosine triphosphate, 0.5 mM Tris(2-carboxyethyl)phosphine hydrochloride, 1 μM double stranded DNA and 300 nM purified cGAS protein.
Reactions were stopped and ATP levels in the reaction were measured using a luciferase based assay. Promega Kinase-Glo Max Assay. Luminescence was measured on a plate reader (Molecular Devices). Values were normalized to control wells lacking compound.

T1 sequence (Q8N884 157-522): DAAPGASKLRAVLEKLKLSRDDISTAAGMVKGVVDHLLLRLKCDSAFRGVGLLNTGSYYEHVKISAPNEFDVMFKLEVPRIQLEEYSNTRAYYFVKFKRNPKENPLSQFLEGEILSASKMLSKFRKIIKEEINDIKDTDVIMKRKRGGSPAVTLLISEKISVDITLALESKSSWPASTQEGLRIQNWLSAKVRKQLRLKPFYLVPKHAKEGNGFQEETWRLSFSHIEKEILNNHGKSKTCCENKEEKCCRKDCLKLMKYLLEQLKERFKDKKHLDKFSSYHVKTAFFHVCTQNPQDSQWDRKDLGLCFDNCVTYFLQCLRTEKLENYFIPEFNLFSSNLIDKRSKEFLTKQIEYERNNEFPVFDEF

| IC50 [µM] | SMILES |
| --- | --- |
| 20 to 250 | COC(=O)[C@H](Cc1ccc(C#N)cc1)Nc1nc(NCc2nc3cc(Cl)ccc3[nH]2)nc(Nc2cccc(CN3CCNCC3)c2)n1 [TA1058, methyl (S)-2-((4-(((5-chloro-1H-benzo[d]imidazol-2-yl)methyl)amino)-6-((3-(piperazin-1-ylmethyl)phenyl)amino)-1,3,5-triazin-2-yl)amino)-3-(4-cyanophenyl)propanoate] |
| > 250 | COC(=O)[C@H](Cc1ccc(C#N)cc1)Nc1nc(NCc2ccccc2)nc(Nc2cccc(CN3CCNCC3)c2)n1 [TA1049, methyl (S)-2-((4-(benzylamino)-6-((3-(piperazin-1-ylmethyl)phenyl)amino)-1,3,5-triazin-2-yl)amino)-3-(4-cyanophenyl)propanoate] |
| > 250 | Cc1cc2nc(CN(C)c3nc(Nc4cccc(CN5CCN(S(=O)(=O)c6cnn(C)c6C)CC5)c4)nc(N[C@@H](Cc4ccc(C#N)cc4)C(=O)N(C)C)n3)[nH]c2cc1C [TA1073, (S)-3-(4-cyanophenyl)-2-((4-(((5,6-dimethyl-1H-benzo[d]imidazol-2-yl)methyl)(methyl)amino)-6-((3-((4-((1,5-dimethyl-1H-pyrazol-4-yl)sulfonyl)piperazin-1-yl)methyl)phenyl)amino)-1,3,5-triazin-2-yl)amino)-N,N-dimethylpropanamide] |
| > 250 | COC(=O)[C@H](Cc1ccc(C#N)cc1)Nc1nc(Nc2cccc(CN3CCN(C=O)CC3)c2)nc(OC)n1 [TA1077, methyl (S)-3-(4-cyanophenyl)-2-((4-((3-((4-formylpiperazin-1-yl)methyl)phenyl)amino)-6-methoxy-1,3,5-triazin-2-yl)amino)propanoate] |
| > 250 | CN(C)C(=O)[C@H](Cc1ccc(C#N)cc1)Nc1nc(NCc2nc3cc(F)ccc3[nH]2)nc(Nc2cccc(CN3CCNCC3)c2)n1 [TA1013, (S)-3-(4-cyanophenyl)-2-((4-(((5-fluoro-1H-benzo[d]imidazol-2-yl)methyl)amino)-6-((3-(piperazin-1-ylmethyl)phenyl)amino)-1,3,5-triazin-2-yl)amino)-N,N-dimethylpropanamide] |
| > 250 | COC(=O)[C@H](Cc1ccc(C#N)cc1)Nc1nc(Nc2cccc(CN3CCNCC3)c2)nc(OC)n1 [TA1028, methyl (S)-3-(4-cyanophenyl)-2-((4-methoxy-6-((3-(piperazin-1-ylmethyl)phenyl)amino)-1,3,5-triazin-2-yl)amino)propanoate] |
| > 250 | CN(C)C(=O)[C@H](Cc1ccc(C#N)cc1)Nc1ncnc(Nc2cccc(CN3CCN(C(=O)OC(C)(C)C)CC3)c2)n1 [TA1010, tert-butyl (S)-4-(3-((4-((3-(4-cyanophenyl)-1-(dimethylamino)-1-oxopropan-2-yl)amino)-1,3,5-triazin-2-yl)amino)benzyl)piperazine-1-carboxylate] |
| < 20 | COC(=O)[C@H](CC1CCCCC1)Nc1nc(NCc2nc3cc(F)ccc3[nH]2)nc(Nc2cccc(CN3CCN(C(=O)c4nccnc4O)CC3)c2)n1 [TA1072, methyl (S)-3-cyclohexyl-2-((4-(((5-fluoro-1H-benzo[d]imidazol-2-yl)methyl)amino)-6-((3-((4-(3-hydroxypyrazine-2-carbonyl)piperazin-1-yl)methyl)phenyl)amino)-1,3,5-triazin-2-yl)amino)propanoate] |
| > 250 | COC(=O)[C@H](Cc1ccc(C#N)cc1)Nc1nc(NCc2nccn2C)nc(Nc2cccc(CN3CCNCC3)c2)n1 [TA1032, methyl (S)-3-(4-cyanophenyl)-2-((4-(((1-methyl-1H-imidazol-2-yl)methyl)amino)-6-((3-(piperazin-1-ylmethyl)phenyl)amino)-1,3,5-triazin-2-yl)amino)propanoate] |
| > 250 | COCCNC(=O)[C@H](Cc1ccc(C#N)cc1)Nc1nc(NCc2nc3cc(F)ccc3[nH]2)nc(Nc2cccc(CN3CCNCC3)c2)n1 [TA1017, (S)-3-(4-cyanophenyl)-2-((4-(((5-fluoro-1H-benzo[d]imidazol-2-yl)methyl)amino)-6-((3-(piperazin-1-ylmethyl)phenyl)amino)-1,3,5-triazin-2-yl)amino)-N-(2-methoxyethyl)propanamide] |
| > 250 | COCCNc1nc(Nc2cccc(CN3CCN(C(=O)c4nccnc4O)CC3)c2)nc(N[C@@H](Cc2ccc(C#N)cc2)C(=O)OC)n1 [TA1033, methyl (S)-3-(4-cyanophenyl)-2-((4-((3-((4-(3-hydroxypyrazine-2-carbonyl)piperazin-1-yl)methyl)phenyl)amino)-6-((2-methoxyethyl)amino)-1,3,5-triazin-2-yl)amino)propanoate] |
| > 250 | COC(=O)[C@H](Cc1ccc(C#N)cc1)Nc1nc(Nc2cccc(CN3CCN(C(C)=O)CC3)c2)nc(N(Cc2nc3cc(F)ccc3[nH]2)C(C)=O)n1 [TA1076, methyl (S)-2-((4-((3-((4-acetylpiperazin-1-yl)methyl)phenyl)amino)-6-(N-((5-fluoro-1H-benzo[d]imidazol-2-yl)methyl)acetamido)-1,3,5-triazin-2-yl)amino)-3-(4-cyanophenyl)propanoate] |
| > 250 | CN(C)C(=O)[C@H](Cc1ccc(C#N)cc1)Nc1ncnc(Nc2cccc(CN3CCNCC3)c2)n1 [TA1011, (S)-3-(4-cyanophenyl)-N,N-dimethyl-2-((4-((3-(piperazin-1-ylmethyl)phenyl)amino)-1,3,5-triazin-2-yl)amino)propanamide] |
| > 250 | COC(=O)[C@H](Cc1ccc(C#N)cc1)Nc1nc(Nc2cccc(CN3CCN(C(=O)c4cnccn4)CC3)c2)nc(N(C)CCc2nc3ccc(OC)cc3[nH]2)n1 [TA1054, methyl (S)-3-(4-cyanophenyl)-2-((4-((2-(6-methoxy-1H-benzo[d]imidazol-2-yl)ethyl)(methyl)amino)-6-((3-((4-(pyrazine-2-carbonyl)piperazin-1-yl)methyl)phenyl)amino)-1,3,5-triazin-2-yl)amino)propanoate] |
| > 250 | CNc1nc(Nc2cccc(CN3CCN(C(=O)c4nccnc4O)CC3)c2)nc(N[C@@H](Cc2ccc(C#N)cc2)C(=O)OC)n1 [TA1035, methyl (S)-3-(4-cyanophenyl)-2-((4-((3-((4-(3-hydroxypyrazine-2-carbonyl)piperazin-1-yl)methyl)phenyl)amino)-6-(methylamino)-1,3,5-triazin-2-yl)amino)propanoate] |
| > 250 | CN(C)C(=O)[C@H](Cc1ccc(C#N)cc1)Nc1nc(Cl)nc(Nc2cccc(CN3CCN(C(=O)OC(C)(C)C)CC3)c2)n1 [TA1008, tert-butyl (S)-4-(3-((4-chloro-6-((3-(4-cyanophenyl)-1-(dimethylamino)-1-oxopropan-2-yl)amino)-1,3,5-triazin-2-yl)amino)benzyl)piperazine-1-carboxylate] |
| > 250 | COC(=O)[C@H](Cc1ccc(C#N)cc1)Nc1nc(NCc2nc3cc(F)ccc3[nH]2)nc(Nc2cccc(CN3CCN(C(=O)C4CCN(S(C)(=O)=O)CC4)CC3)c2)n1 [TA1079, methyl (S)-3-(4-cyanophenyl)-2-((4-(((5-fluoro-1H-benzo[d]imidazol-2-yl)methyl)amino)-6-((3-((4-(1-(methylsulfonyl)piperidine-4-carbonyl)piperazin-1-yl)methyl)phenyl)amino)-1,3,5-triazin-2-yl)amino)propanoate] |
